Results on seven compounds are retold here after ChEMBL document CHEMBL5500420, “Discovery of BI-9508, a Brain-Penetrant GPR88-Receptor-Agonist Tool Compound for In Vivo Mouse Studies” (J Med Chem, 2024).

≈ marks a conversion by molar mass, not a printed value.

Data set [1] in a line: Solubility of compound at pH 7 by high-throughput analysis. It counts as physicochemical. To be noted: buffer.
Data set [2] in a line: Protein binding in mouse plasma at 1 uM incubated for 2 hrs by equilibrium dialysis based HPLC-MS/MS analysis. The format is ADME, cell-free. To be noted: read-out: PPB (converted).
Data set [3] deals with T1, G protein-coupled receptor 88 (Mus musculus, UniProt Q9EPB7). The data set can be described thus: Agonist activity at mouse GPR88 transfected in HEK293 cells incubated for 10 mins by Gi1 BRET assay. The format is functional, cell-based.
Data set [4] concerns the target G protein-coupled receptor 88 (Homo sapiens, UniProt Q9GZN0). The data set can be described thus: Agonist activity at human GPR88 transfected in HEK293 cells incubated for 10 mins by Gi1 BRET assay.
For data set [5], the target named is T1, G protein-coupled receptor 88. The data set can be described thus: Agonist activity at GPR88 in wildtype mouse striatal membrane assessed as stimulation of [35S]-GTPgammaS binding incubated for 1 hrs in presence of GDP by liquid scintillation counter.
Data set [6] relates to P-gp. Put plainly: Apparent permeability in P-gp overexpressing MDCK-MDR1 cells at 1 uM incubated upto 2 hrs. It counts as ADME, cell-based, Canis lupus familiaris. Conditions: dog.

T1 sequence (Q9EPB7 whole entry): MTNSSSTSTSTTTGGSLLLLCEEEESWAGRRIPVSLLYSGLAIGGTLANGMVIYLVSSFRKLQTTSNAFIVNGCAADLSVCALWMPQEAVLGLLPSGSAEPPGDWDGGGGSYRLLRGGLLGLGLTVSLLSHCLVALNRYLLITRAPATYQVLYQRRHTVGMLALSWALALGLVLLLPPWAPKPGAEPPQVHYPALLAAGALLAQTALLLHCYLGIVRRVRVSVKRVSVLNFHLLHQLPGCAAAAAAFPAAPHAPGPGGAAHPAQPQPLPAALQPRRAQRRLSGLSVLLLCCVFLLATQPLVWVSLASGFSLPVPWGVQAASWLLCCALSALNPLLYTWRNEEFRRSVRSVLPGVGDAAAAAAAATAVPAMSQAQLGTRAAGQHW
Chain of G protein-coupled receptor 88 (Homo sapiens, UniProt Q9GZN0) (Q9GZN0 whole entry): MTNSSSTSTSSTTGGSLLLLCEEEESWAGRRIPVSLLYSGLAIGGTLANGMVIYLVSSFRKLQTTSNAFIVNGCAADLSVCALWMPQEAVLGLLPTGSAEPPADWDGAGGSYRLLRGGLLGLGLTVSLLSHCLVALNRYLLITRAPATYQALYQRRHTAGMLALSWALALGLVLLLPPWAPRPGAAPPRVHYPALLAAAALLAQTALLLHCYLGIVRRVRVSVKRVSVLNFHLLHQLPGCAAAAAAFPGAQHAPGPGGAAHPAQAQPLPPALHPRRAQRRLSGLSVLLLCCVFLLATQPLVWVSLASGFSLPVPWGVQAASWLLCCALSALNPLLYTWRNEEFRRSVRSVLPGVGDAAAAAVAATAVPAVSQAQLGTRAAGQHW

In data set [1], `CC(C)Oc1ccc(-c2ccc(N(CCOC(F)F)C(=O)[C@@H]3C[C@H]3c3ccncn3)c3ncnn23)cc1` yielded a solubility of 11 µg/mL (≈ 21.6 µM). Besides, the fraction unbound at 2 h, 1 µM in data set [2] was 0.062.

For `COc1cc(-c2ccc(OC(C)C)cc2)ccc1N(C[C@@H](N)[C@@H](C)OC)C(=O)[C@@H]1C[C@H]1c1ccncn1`, the EC50 in data set [3] stood at 226 nM; in data set [4], 168 nM; in data set [5] it was 6100 nM. As for `COc1cc(-c2ccc(O[C@@H](C)C(F)(F)F)nc2)ccc1N(CCOC(F)F)C(=O)[C@@H]1C[C@H]1c1ccncn1`, the fraction unbound at 2 h, 1 µM in data set [2] was 0.004.

In the case of `CO[C@H](C)[C@H](N)CN(C(=O)[C@@H]1C[C@H]1c1ccncn1)c1ccc(-c2ccc(OC(C)C)nc2)cc1`, the fraction unbound at 2 h, 1 µM in data set [2] was 0.052. For the compound `CC(C)Oc1ccc(-c2ccc(N(CCOC(F)F)C(=O)[C@@H]3C[C@H]3c3ccncn3)c3c2cnn3C)cc1`, it took 94 nM to reach a half-maximal effect in data set [3] (EC50).

The compound `CO[C@H](C)[C@H](N)CN(C(=O)[C@@H]1C[C@H]1c1ccncn1)c1ccc(-c2ccc(OC(C)C)cc2)cc1` gave an EC50 in data set [4] above 99000 nM.

Take `Cc1nnc2n1-c1sc(CCC(=O)N3CCOCC3)cc1C(c1ccccc1Cl)=NC2` [APAFANT]: the Papp at 2 h, 1 µM in data set [6] was determined as 3 ×10⁻⁶ cm/s.
